Experimental findings from US20260285846A1, “REV-ERB AGONISTS FOR TH17-MEDIATED INFLAMMATORY DISORDERS” (UNIVERSITY OF FLORID RESEARCH FOUNDATION, iNCORPORATED, priority 2021, published 2026) are described below.

A value given as a limit tells only on which side of the number the result lay.

Broadly, the EC50 is the midpoint of the concentration-response curve.

Sequence of REV-ERBα LBD (P20393 with tags, fused parts or gaps DEL324-422): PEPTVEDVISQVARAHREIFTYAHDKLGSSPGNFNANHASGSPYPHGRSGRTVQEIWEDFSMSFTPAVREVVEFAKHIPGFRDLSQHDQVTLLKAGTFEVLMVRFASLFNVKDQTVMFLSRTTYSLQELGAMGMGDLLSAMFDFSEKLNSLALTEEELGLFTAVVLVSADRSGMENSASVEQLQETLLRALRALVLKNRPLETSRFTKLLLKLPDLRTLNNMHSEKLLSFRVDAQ
Sequence of REV-ERBα LBD (Q9Y618 2335-2356 partner limits assumed): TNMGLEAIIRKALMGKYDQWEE

The experiment concerns the target REV-ERBα LBD (Homo sapiens, UniProt P20393, DEL324-422). In words: biochemical. As to conditions: FRET assay; 6xHistag-REV-ERBα LBD with FITC-labeled SMRT corepressor peptide; read-out: REVERBα (Agonism of REV-ERBα, EC50). As to the method:
TR-FRET corepressor interaction assay. The time-resolved fluorescence resonance energy transfer (TR-FRET) assay was performed in black low-volume 384-well plates (Greiner). Each well contained 4 nM 6×Histag-REV-ERBα LBD (human; residues 281-614 A324-422) or 6×Histag-REV-ERBα LBD (human; residues 381-579) protein expressed in and purified from Escherichia coli using nickel affinity and size exclusion chromatography; 1 nM LanthaScreen Elite Tb-anti-HIS Antibody (Thermo Fisher Scientific); and 400 nM FITC-labeled peptide derived from the SMRT corepressor ([…]) containing a N-terminal FITC label with a six-carbon linker (Ahx) and an amidated C-terminus for stability (synthesized by LifeTein) in TR-FRET buffer (20 mM potassium phosphate, pH 7.4, 50 mM potassium chloride, 1 mM dithiothreitol, and 0.005% Tween-20). Ligand stocks were prepared via serial dilution in DMSO, added to wells in triplicate, and plates were incubated at 4° C. for 2 h and read using a BioTek Synergy Neo multimode plate reader. The Tb donor was excited at 340 nm; its fluorescence emission was monitored at 495 nm, and the acceptor FITC emission was measured at 520 nm; and the TR-FRET ratio was calculated as the signal at 520 nm divided by the signal at 495 nm. Data were plotted using GraphPad Prism as TR-FRET ratio vs. ligand concentration and fit to sigmoidal dose response curve equation.
Exemplary compounds of the present disclosure were assayed as described above to assess agonism of REV-ERBα. Results of the FRET assay are shown in Table 2 below (A: EC50<100 nM; B: EC50 100 nM-1000 nM; C: EC50>1000 nM; NT: not tested).
Consider `CC(C)(C)Cn1cc([C@H](NS(=O)(=O)C2CCC2)C(F)F)c2ccc(-c3cccnc3C(F)(F)F)cc21` [Compound 14, (S)—N-(2,2-difluoro-1-(1-neopentyl-6-(2-(trifluoromethyl)pyridin-3-yl)-1H-indol-3-yl)ethyl)cyclobutanesulfonamide], for which the EC50 was < 100 nM.
As to `Cc1ccccc1-c1ccc2c([C@H](NS(=O)(=O)C3CC3)C(F)F)cn(CC(C)(C)C)c2c1` [Compound 15, (S)—N-(2,2-difluoro-1-(1-neopentyl-6-(o-tolyl)-1H-indol-3-yl)ethyl)cyclopropanesulfonamide], the concentration for a half-maximal effect (EC50) is < 100 nM.
Take `CC(C)(C)Cn1cc([C@H](NS(=O)(=O)C2CC2)C(F)F)c2cc(F)c(C3=CCOCC3)cc21` [Compound 16, (S)—N-(1-(6-(3,6-dihydro-2H-pyran-4-yl)-5-fluoro-1-neopentyl-1H-indol-3-yl)-2,2-difluoroethyl)cyclopropanesulfonamide]: the EC50 is < 100 nM.
For the molecule `CN(C)S(=O)(=O)N[C@@H](c1cn(CC(C)(C)C)c2cc(-c3ccccc3C(F)(F)F)ccc12)C(F)F` [Compound 21], the half-maximal effective concentration (EC50) was < 100 nM.
For `CC(C)(C)Cn1cc([C@H](NS(=O)(=O)C2CC(F)C2)C(F)F)c2ccc(-c3ccccc3C(F)(F)F)cc21` (stereo partly drawn) [Compound 22, (S)—N-(2,2-difluoro-1-(1-neopentyl-6-(2-(trifluoromethyl)phenyl)-1H-indol-3-yl)ethyl)-3-fluorocyclobutane-1-sulfonamide] the value was < 100 nM.
For `Cc1ccccc1-c1ccc2c([C@H](NS(=O)(=O)C3CC(F)(F)C3)C(F)F)cn(CC(C)(C)C)c2c1` [Compound 30, (S)—N-(2,2-difluoro-1-(1-neopentyl-6-(o-tolyl)-1H-indol-3-yl)ethyl)-3,3-difluorocyclobutane-1-sulfonamide], the 50% effective concentration (EC50) fell in the range of 100 to 1000 nM.
For `CC(C)(C)Cn1cc([C@H](NS(=O)(=O)N2CCC2)C(F)F)c2cc(F)c(-c3ccccc3C(F)(F)F)cc21` [Compound 31, (S)—N-(2,2-difluoro-1-(5-fluoro-1-neopentyl-6-(2-(trifluoromethyl)phenyl)-1H-indol-3-yl)ethyl)azetidine-1-sulfonamide] the value was < 100 nM.
For `CC(NS(=O)(=O)C1CC1)c1cn(CC(C)(C)C)c2cc(C3CCOC3)c(F)cc12` (centres unmarked) [Compound 34, N-(1-(5-fluoro-1-neopentyl-6-(tetrahydrofuran-3-yl)-1H-indol-3-yl)ethyl)cyclopropanesulfonamide] the value was < 100 nM; for `CC(NS(=O)(=O)C1CC1)c1cn(CC(C)(C)C)c2cc(C3CCOCC3)c(F)cc12` (centres unmarked) [Compound 35], < 100 nM.
The same measure for `Cc1ncccc1-c1cc2c(cc1F)c(C(C)NS(=O)(=O)C1CC1)cn2CC(C)(C)C` (centres unmarked) [Compound 36, N-(1-(5-fluoro-6-(2-methylpyridin-3-yl)-1-neopentyl-1H-indol-3-yl)ethyl)cyclopropanesulfonamide]: < 100 nM; for `CC(NS(=O)(=O)C1CC1)c1cn(CC(C)(C)C)c2cc(-c3cncc(C#N)c3)c(F)cc12` (centres unmarked) [Compound 37, N-[1-[6-(5-cyano-3-pyridyl)-1-(2,2-dimethylpropyl)-5-fluoro-indol-3-yl]ethyl]cyclopropanesulfonamide]: 100 to 1000 nM.
For the molecule `CC(C)(C)Cn1cc([C@H](NS(=O)(=O)C2CC2)C(F)F)c2cc(F)c(-c3cccnc3C(F)(F)F)cc21` [Compound 38, (S)—N-(2,2-difluoro-1-(5-fluoro-1-neopentyl-6-(2-(trifluoromethyl)pyridin-3-yl)-1H-indol-3-yl)ethyl)cyclopropanesulfonamide], the half-maximal effective concentration (EC50) was < 100 nM.
The same measure for `CC(C)(C)Cn1cc([C@H](NS(=O)(=O)C2CC2)C(F)F)c2ccc(-c3ncccc3C(F)(F)F)cc21` [Compound 39, (S)—N-(2,2-difluoro-1-(1-neopentyl-6-(3-(trifluoromethyl)pyridin-2-yl)-1H-indol-3-yl)ethyl)cyclopropanesulfonamide]: < 100 nM; for `CC(C)(C)Cn1cc([C@H](NS(=O)(=O)C2CC2)C(F)F)c2ccc(-c3ncccc3C#N)cc21` [Compound 40, (S)—N-(1-(6-(3-cyanopyridin-2-yl)-1-neopentyl-1H-indol-3-yl)-2,2-difluoroethyl)cyclopropanesulfonamide]: < 100 nM.
For `CC(C)(C)Cn1cc(C(NS(=O)(=O)C23CC(C2)C3)C(F)F)c2cc(F)c(-c3ccccc3C(F)(F)F)cc21` (centres unmarked) [Compound 41, N-(2,2-difluoro-1-(5-fluoro-1-neopentyl-6-(2-(trifluoromethyl)phenyl)-1H-indol-3-yl)ethyl)bicyclo[1.1.1]pentane-1-sulfonamide] the value was < 100 nM; for `CC(C)S(=O)(=O)N[C@@H](c1cn(CC(C)(C)C)c2cc(-c3cccnc3C(F)(F)F)c(F)cc12)C(F)F` [Compound 42, (S)—N-(2,2-difluoro-1-(5-fluoro-1-neopentyl-6-(2-(trifluoromethyl)pyridin-3-yl)-1H-indol-3-yl)ethyl)propane-2-sulfonamide], < 100 nM.
For `CN(C)S(=O)(=O)N[C@@H](c1cn(CC(C)(C)C)c2cc(-c3cccnc3C(F)(F)F)c(F)cc12)C(F)F` [Compound 43] the value was < 100 nM; for `[2H]C1([2H])CC(S(=O)(=O)N[C@@H](c2cn(CC(C)(C)C)c3cc(-c4cccnc4C(F)(F)F)c(F)cc23)C(F)F)C1` [Compound 45, (S)—N-(2,2-difluoro-1-(5-fluoro-1-neopentyl-6-(2-(trifluoromethyl)pyridin-3-yl)-1H-indol-3-yl)ethyl)cyclobutane-1-sulfonamide-3,3-d2], < 100 nM; for `CC(C)(C)Cn1cc([C@H](NS(=O)(=O)C2CC(F)C2)C(F)F)c2ccc(-c3cccnc3C(F)(F)F)cc21` (stereo partly drawn) [Compound 46, (S)—N-(2,2-difluoro-1-(1-neopentyl-6-(2-(trifluoromethyl)pyridin-3-yl)-1H-indol-3-yl)ethyl)-3-fluorocyclobutane-1-sulfonamide], < 100 nM.
On to `CC(C)(C)Cn1cc([C@H](NS(=O)(=O)C2CC2)C(F)F)c2ccc(-c3nccnc3C(F)(F)F)cc21` [Compound 47, (S)—N-(2,2-difluoro-1-(1-neopentyl-6-(3-(trifluoromethyl)pyrazin-2-yl)-1H-indol-3-yl)ethyl)cyclopropanesulfonamide], for which the EC50 is < 100 nM.
Regarding `CC(C)(C)Cn1cc([C@H](NS(=O)(=O)C2CC2)C(F)F)c2ccc(-c3nccnc3C#N)cc21` [Compound 48, (S)—N-(1-(6-(3-cyanopyrazin-2-yl)-1-neopentyl-1H-indol-3-yl)-2,2-difluoroethyl)cyclopropanesulfonamide], the EC50 was 100 to 1000 nM.
As to `CC(C)(C)Cn1cc([C@H](NS(=O)(=O)C2CC2)C(F)F)c2ccc(-c3cccnc3C#N)cc21` [Compound 49, (S)—N-(1-(6-(2-cyanopyridin-3-yl)-1-neopentyl-1H-indol-3-yl)-2,2-difluoroethyl)cyclopropanesulfonamide], the concentration for a half-maximal effect (EC50) was < 100 nM.
The same measure for `CN(C)S(=O)(=O)N[C@@H](c1cn(CC(C)(C)C)c2cc(-c3nccnc3C(F)(F)F)ccc12)C(F)F` [Compound 51]: < 100 nM.
Turning to `CC(C)(C)Cn1cc([C@H](NS(=O)(=O)C2CC2)C(F)F)c2ccc(-c3c(C#N)ccnc3C(F)(F)F)cc21` [Compound 52, (S)—N-(1-(6-(4-cyano-2-(trifluoromethyl)pyridin-3-yl)-1-neopentyl-1H-indol-3-yl)-2,2-difluoroethyl)cyclopropanesulfonamide], the concentration for a half-maximal effect (EC50) lay in the range of 100 to 1000 nM.
The same measure for `CC(C)(C)Cn1cc([C@H](NS(=O)(=O)C2CC2)C(F)F)c2ccc(-c3ncc(F)cc3C(F)(F)F)cc21` [Compound 53, (S)—N-(2,2-difluoro-1-(6-(5-fluoro-3-(trifluoromethyl)pyridin-2-yl)-1-neopentyl-1H-indol-3-yl)ethyl)cyclopropanesulfonamide]: < 100 nM; for `CN(C)S(=O)(=O)N[C@@H](c1cn(CC(C)(C)C)c2cc(-c3ccccc3C(F)(F)F)c(F)cc12)C(F)F` [Compound 54]: < 100 nM; for `CC(C)(C)Cn1cc([C@H](NS(=O)(=O)C2CC2)C(F)F)c2cc(F)c(-c3c(C#N)ccnc3C(F)(F)F)cc21` [Compound 55, N-((1S)-1-(6-(4-cyano-2-(trifluoromethyl)pyridin-3-yl)-5-fluoro-1-neopentyl-1H-indol-3-yl)-2,2-difluoroethyl)cyclopropanesulfonamide]: < 100 nM.
The same measure for `CC(C)(C)Cn1cc([C@H](NS(=O)(=O)C2CC2)C(F)F)c2cc(F)c(-c3ncc(F)cc3C(F)(F)F)cc21` [Compound 56, (S)—N-(2,2-difluoro-1-(5-fluoro-6-(5-fluoro-3-(trifluoromethyl)pyridin-2-yl)-1-neopentyl-1H-indol-3-yl)ethyl)cyclopropanesulfonamide]: < 100 nM.
For `CC(C)(C)Cn1cc([C@H](NS(=O)(=O)C2CC2)C(F)F)c2cc(F)c(-c3nccnc3C(F)(F)F)cc21` [Compound 57, (S)—N-(2,2-difluoro-1-(5-fluoro-1-neopentyl-6-(3-(trifluoromethyl)pyrazin-2-yl)-1H-indol-3-yl)ethyl)cyclopropanesulfonamide] the value was < 100 nM.
